Experimental data from publication PMC8694143 (Microbiology Spectrum, 2021).
No end group written: not given here.

Columns and labels:
[1] = tested on: S. aureus bovid isolate (RDM-1); assay: MIC determination in broth; type: cell-based, Staphylococcus aureus; conditions: clinical isolate, mastitis in a dairy cow; MH broth
Protocol: (§1) The MICs were measured for bioactive peptides identified from the initial screen. Cation-adjusted Mueller-Hinton (MH) broth was used as the growth medium for MIC determination experiments. Bacterial cultures were diluted to an OD of 5 × 10^−4 (∼10^5 CFU/mL) in 200 μL MH broth mixed with peptides in a 2-fold dilution series arrayed in 96-well plates. Plates were incubated without shaking at 30 or 37°C depending on the organism.

[2] = tested on: MRSA 33592; assay: Transmission electron microscopy; type: cell-based, Staphylococcus aureus; conditions: 25 μg/mL, PBS, 37°C
Protocol: Samples for TEM imaging were prepared by diluting MRSA 33592 cultures to an OD of 0.5 in PBS before the cell suspension was treated with 25 μg/mL STIP3-29. Treated and untreated cells were incubated at 37°C. Treated samples were prepared from imaging after 30 min and 4 h of treatment. An untreated control sample was prepared after a 4 h incubation period. Cells from the distinct time points or treatments were harvested by centrifugation, fixed for 4 h using 2% glutaraldehyde, postfixed for 1 h with 1% OsO4, dehydrated with a graded ethanol series, embedded in Epon, and en bloc stained with saturated uranyl acetate in 70% ethanol prior to sectioning. Imaging was performed using a Hitachi HT7700 instrument.

[3] = tested on: MRSA ATCC 33592 on 3D EpiDerm skin tissues; assay: Three-dimensional NHEK skin model of MRSA infection; type: cell-based, Staphylococcus aureus; conditions: 25 μg/mL (4× MIC), 100 μL apical, 16 h after 4 h colonization, 37°C, 5% CO2
Protocol: 3D EpiDerm skin tissues (MatTek EPI-200-AFAB; antifungal and antibiotic-free; 9 mm) contained within a plastic insert lined with a permeable 0.4 μm membrane were transferred to 12-well plates containing antibiotic assay medium (600 μL/well). A fresh MRSA ATCC 33592 culture in the log phase of growth was centrifuged at 10,000 rpm for 5 min to harvest bacterial cells before resuspension in sterile PBS to an […] 5 × 10^6 CFU/mL. Tissues were incubated with 100 μL of the bacterial cell suspension (5 × 10^5 CFU) for 4 h at 37°C in a humidified 5% CO2 environment. After 4 h, the bacterial cell suspension was removed and the apical surface of each tissue was washed 3 times with PBS to remove nonadherent bacterial cells. Next, the colonized skin tissues were treated with a 100 μL volume of STIP3-29 at 25 μg/mL. An equal volume of sterile PBS was used for untreated control experiments. Tissues were then incubated at 37°C in a humidified 5% CO2 environment for 16 h. […] The number of MRSA colonies on each plate was counted and an average CFU/mL was determined for treated and untreated samples. […] The statistical differences in colonization were evaluated using an unpaired two-tailed Student’s t test to compare pretreated (control colonization; CC), untreated control (PBS), and STIP3-29 treated groups.

[4] = tested on: S. auricularis; assay: MIC determination in broth; type: cell-based, Staphylococcus auricularis; conditions: isolate from the healthy quarter of a dairy cow; MH broth
Protocol: as §1

[5] = tested on: MRSA ATCC 33592, ATCC 1683 and S. pseudintermedius SPC002; assay: Bactericidal activity time course, short intervals; type: cell-based, Staphylococcus aureus; Staphylococcus pseudintermedius; conditions: 2× MIC, MH broth, 37°C
Protocol: (§2) Time-dependent inhibition of pathogens was measured using standing bacterial cultures treated with 2× MIC. Overnight cultures were diluted to 10^4 or 10^7 CFU/mL in 2 mL of MH broth supplemented with the appropriate peptide concentration or sterile water as a control. Standing cultures were then incubated at 37°C and 100 μL aliquots were removed at specified time intervals. For the panel of 7 MRSA strains, treatment intervals of 30 min, 4 h, 8 h, and 24 h were used. For MRSA ATCC 33592, ATCC 1683, and S. pseudintermedius SPC002, shorter intervals included 5, 30, 60, 120, 240, and 360 min. The 100-μL aliquots were plated using serial dilutions as necessary on LB agar, and CFU were counted as a measure of bacterial viability after 24 h. To normalize cell viability data, surviving cells in CFU/mL were compared to the initial bacterial inoculum of each strain and then expressed as a percentage of that concentration. All experiments were performed in triplicate with values reported as the mean with standard deviations. Statistical differences in the observed viability of bacteria treated with STIP3-29 were analyzed using a paired two-tailed Student’s t test comparing the pretreatment (0 h) viability to those observed at posttreatment time points using Stata v17.0 software.

[6] = tested on: S. epidermidis; assay: MIC determination in broth; type: cell-based, Staphylococcus epidermidis; conditions: isolate from the healthy quarter of a dairy cow; MH broth
Protocol: as §1

[7] = tested on: panel of 7 MRSA strains; assay: Bactericidal activity time course, MRSA panel; type: cell-based, Staphylococcus aureus
Protocol: as §2

[8] = tested on: Mannheimia haemolytica ATCC 33396; assay: MIC determination in broth; type: cell-based; conditions: MH broth
Protocol: as §1

[9] = tested on: Pseudomonas aeruginosa ATCC 27853; assay: MIC determination in broth; type: cell-based; conditions: MH broth
Protocol: as §1

[10] = tested on: Escherichia coli DH10B; assay: MIC determination in broth; type: cell-based; conditions: MH broth
Protocol: as §1

[11] = tested on: S. scuri; assay: MIC determination in broth; type: cell-based; conditions: isolate from the healthy quarter of a dairy cow; MH broth
Protocol: as §1

[12] = tested on: S. equorum; assay: MIC determination in broth; type: cell-based, Staphylococcus equorum; conditions: isolate from the healthy quarter of a dairy cow; MH broth
Protocol: as §1

## TVGGLVKWILKTVKKFA-NH2 [STIP3-29]
[1]
  MIC, S. aureus bovid isolate (RDM-1): 6.25 µg/mL
[2]; 30 min
  Peptide-induced lysis by TEM, 30 min: No peptide-induced lysis was observed
[2]; 4 h
  Peptide-induced lysis by TEM, 4 h: evidence was present
[3]
  Effect on the MRSA population on colonized NHEK tissue: prevented the expansion of the MRSA population
[4]
  MIC, S. auricularis: 1.56 µg/mL
[5]; 5 min, all three strains, normalized to the starting cell count
  Viability within 5 min of treatment: ≤ 40%
[5]; 2 h, detection limit 10 CFU/mL
  Recovery of viable bacteria after 2 h of treatment: inability to recover viable bacteria
[6]
  MIC, S. epidermidis: 3.13 µg/mL
[7]; 12.5 μg/mL (2× MIC), MH broth, 37°C, 4 h, all 7 MRSA strains, triplicate
  Recovery of viable MRSA cells: less than 1%
[7]; MRSA viability during two time course experiments
  Mode of antibacterial action from viability time courses: bactericidal
[8]
  MIC, Mannheimia haemolytica ATCC 33396: 6.25 µg/mL
[9]
  MIC, Pseudomonas aeruginosa ATCC 27853: 50 µg/mL
[10]
  MIC, Escherichia coli DH10B: 12.5 µg/mL
[11]
  MIC, S. scuri: 3.13 µg/mL
[12]
  MIC, S. equorum: 3.13 µg/mL
